Counter-ions that a name gives are not always drawn.

A word on the Ki: it is the equilibrium dissociation constant of an inhibitor or competing ligand from its target. Read a high Ki as weaker binding.

The nature of data set [1]: Determination of the microsomal half-life / microsomal clearance (human). The class given is in vitro ADME. As to conditions: pH 7.4; human liver microsomes, 0.5 μM test substance, 0.25 mg microsomal protein/ml; read-out: Human Mikrosomal Clearance. Here is the method: The metabolic stability of a compound can be determined, for example, by incubating a solution of this compound with liver microsomes from particular species (for example rat, dog or human) and determining the half-life of the compound under these conditions (RS Obach, Curr Opin Drug Discov Devel. 2001, 4, 36-44). It is possible to conclude from an observed larger half-life that the metabolic stability of the compound is improved. The stability in the presence of human liver microsomes is of particular interest since it makes it possible to predict the metabolic degradation of the compound in the human liver. Compounds with increased metabolic stability (determined in the liver microsome test) are therefore probably also degraded more slowly in the liver. The slower metabolic degradation in the liver can lead to higher and/or longer-lasting concentrations (effective levels) of the compound in the body, so that the elimination half-life of the compounds according to the invention is increased. Increased and/or longer-lasting effective levels may lead to a better efficacy of the compound in the treatment or prophylaxis of various vasopressin-dependent diseases. An improved metabolic stability may additionally lead to an increased bioavailability after oral administration, because the compound is subjected, after being absorbed in the intestine, to less metabolic degradation in the liver (so-called first pass effect). An increased oral bioavailability may, because the concentration (effective level) of the compound is increased, lead to a better efficacy of the compound after oral administration.
Determination of the Microsomal Half-Life:
The metabolic stability of the compounds of the invention was determined in the following assay.
The test substances are incubated in a concentration of 0.5 μM as follows:
0.5 μM test substance is preincubated together with liver microsomes of various species (rat, human or other species) (0.25 mg of microsomal protein/ml) in 0.05M potassium phosphate buffer pH 7.4 in microtitre plates at 37° C. for 5 min. The reaction is started by adding NADPH (1 mg/ml). 50 μl aliquots are taken after 0, 5, 10, 15, 20 and 30 min, and the reaction is stopped immediately with the same volume of acetonitrile and cooled down. The samples are frozen until analyzed. Using MSMS, the remaining concentration of undegraded test substance is determined. From the […] of the test substance signal/time unit curve, the half-life (T½) is determined, where the half-life of the test substance can be calculated, assuming first order kinetics, from the decrease in the concentration of the compound with time. The microsomal clearance (mCl) is calculated as mCl=In2/T½/(content of microsomal protein in mg/ml)×1000 [ml/min/mg] (modified according to the literature references: Di, The Society for Biomoleculaur Screening, 2003, 453-462; Obach, DMD, 1999 vol 27. N 11, 1350-1359).
Background: Microsomes from liver hold many membrane-bound enzymes, among them those of drug oxidation.

For data set [2], the target named is T1, recombinant human oxytocin receptors (Homo sapiens, UniProt P30559).
T1 construct: expressed in transfected cells; host or cells: HEK-293, transient expression; lysed and homogenized cells
T1 sequence (P30559 1-389): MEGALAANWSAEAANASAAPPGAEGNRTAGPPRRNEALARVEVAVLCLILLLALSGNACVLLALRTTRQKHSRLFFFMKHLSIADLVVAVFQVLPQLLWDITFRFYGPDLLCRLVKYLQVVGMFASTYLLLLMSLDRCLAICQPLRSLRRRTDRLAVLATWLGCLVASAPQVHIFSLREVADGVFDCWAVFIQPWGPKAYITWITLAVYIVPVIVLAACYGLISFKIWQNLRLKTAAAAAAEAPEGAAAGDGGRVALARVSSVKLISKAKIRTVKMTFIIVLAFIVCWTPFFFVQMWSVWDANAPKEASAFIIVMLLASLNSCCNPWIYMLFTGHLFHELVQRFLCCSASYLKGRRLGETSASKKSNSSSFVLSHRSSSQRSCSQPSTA
Description: Oxytocin receptor binding assay. As to conditions: selectivity for V1b over oxytocin receptor, quotient of Ki values. On the procedure: Oxytocin Receptor Binding Assay
Confluent HEK-293 cells with transiently expressing recombinant human oxytocin receptors were centrifuged at 750×g and at room temperature for 5 minutes. The residue was taken up in ice-cold lysis buffer (50 mM Tris-HCl, 10% glycerol, pH 7.4 and Roche Complete Protease Inhibitor) and subjected to an osmotic shock at 4° C. for 20 minutes. The lyzed cells were then centrifuged at 750×g and at 4° C. for 20 minutes, the residue was taken up in incubation buffer, and aliquots of 10^7 cells/ml were prepared. The aliquots were frozen at −80° C. until used.
On the day of the experiment, the cells were thawed, diluted with incubation buffer and homogenized using a Multipette Combitip (Eppendorf, Hamburg). […] The nonspecific binding was determined with 10^−6 M oxytocin (Bachem AG, H2510). Determinations in triplicate were set up. Bound and free radioligand were separated by filtration under vacuum with Whatman GF/B glass fibre filters using a Skatron cell harvester 7000. The bound radioactivity was determined by liquid scintillation measurement in a Tricarb beta counter, model 2000 or 2200CA (Packard).

Data set [3] has as its target human vasopressin V1a receptor (Homo sapiens, UniProt P37288). Description: Vasopressin V1a receptor binding assay. Particulars: selectivity for V1b over V1a, quotient of Ki values.
The target of data set [4] is T2, human vasopressin V1b receptor (Homo sapiens, UniProt P47901).
T2 construct: expressed in transfected cells; host or cells: CHO-K1 (cell line hV1b-3H2_CHO), membrane preparation
T2 sequence (P47901 1-424): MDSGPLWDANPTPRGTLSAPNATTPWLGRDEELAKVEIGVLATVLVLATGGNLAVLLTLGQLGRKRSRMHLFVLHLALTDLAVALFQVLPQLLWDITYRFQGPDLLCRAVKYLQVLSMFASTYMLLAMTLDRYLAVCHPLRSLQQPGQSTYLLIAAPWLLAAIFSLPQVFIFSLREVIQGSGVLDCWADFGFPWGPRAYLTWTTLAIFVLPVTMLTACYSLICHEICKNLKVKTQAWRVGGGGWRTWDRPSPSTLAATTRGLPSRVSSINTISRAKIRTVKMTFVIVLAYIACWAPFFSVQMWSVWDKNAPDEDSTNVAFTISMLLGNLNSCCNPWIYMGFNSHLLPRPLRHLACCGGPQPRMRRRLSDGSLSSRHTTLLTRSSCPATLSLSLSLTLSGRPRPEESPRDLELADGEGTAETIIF
Description: Vasopressin V1b receptor binding assay. Particulars: displacement of 3H-AVP, membranes of CHO-K1 cells with human V1b receptor. Here is the method: Methods for Determining the Biological Activity Vasopressin V1b Receptor Binding Assay: Substances:
This series of DMSO predilutions was diluted 1:10 with assay buffer. The substance concentration was again diluted 1:5 in the assay mixture (2% DMSO in the mixture).
All determinations were carried out as triplicate determinations.

human vasopressin V1a receptor, sequence (P37288 whole entry): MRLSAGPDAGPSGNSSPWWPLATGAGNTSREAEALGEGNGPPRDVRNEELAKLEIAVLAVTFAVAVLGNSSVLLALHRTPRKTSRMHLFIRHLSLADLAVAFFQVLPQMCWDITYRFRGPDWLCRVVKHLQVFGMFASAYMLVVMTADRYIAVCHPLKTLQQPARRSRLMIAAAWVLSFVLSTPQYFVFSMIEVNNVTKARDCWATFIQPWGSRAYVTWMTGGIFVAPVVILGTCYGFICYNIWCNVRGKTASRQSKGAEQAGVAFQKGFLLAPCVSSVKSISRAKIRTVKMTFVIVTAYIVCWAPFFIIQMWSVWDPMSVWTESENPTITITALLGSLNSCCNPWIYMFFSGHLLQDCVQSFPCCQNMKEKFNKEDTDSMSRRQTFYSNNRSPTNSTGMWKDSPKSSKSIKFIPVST

On to `CCOc1ncccc1C1(NC(=O)N2CCC(N3CCNCC3)CC2)C(=O)N(S(=O)(=O)c2ccc(OC)cc2OC)c2ccc(C#N)cc21` (racemic) [Example 55, N-[5-Cyano-1-[(2,4-dimethoxyphenyl)sulphonyl]-3-(2-ethoxypyridin-3-yl)-2-oxo-2,3-dihydro-1H-indol-3-yl]-4-piperazin-1-ylpiperidine-1-carboxamide], for which the microsomal CLint at 0.5 μM in data set [1] lay within 60 to 120 µL/min/mg. Moreover, the “Ki(h-OT)/Ki(h-V1b)” value in data set [2] is “++ (>25-50)”. For the same molecule, the “Ki(h-V1a)/Ki(h-V1b)” value in data set [3] was “+++ (>100)”. The Ki in data set [4] is less than 10 nM.
Taken in the same sequence, the figures for `CCOc1ncccc1C1(NC(=O)N2CCN(C3CCN(C)CC3)CC2)C(=O)N(S(=O)(=O)c2ccc(OC)cc2OC)c2ccc(C#N)cc21` (racemic) [Example 1, N-[5-Cyano-1-[(2,4-dimethoxyphenyl)sulphonyl]-3-(2-ethoxypyridin-3-yl)-2-oxo-2,3-dihydro-1H-indol-3-yl]-4-(1-methylpiperidin-4-yl)piperazine-1-carboxamide] were less than 60 µL/min/mg, “+++ (>50)”, “+++ (>100)” and less than 10 nM.
Regarding `CCOc1ncccc1C1(NC(=O)N2CCC(N3CCN(C)CC3)CC2)C(=O)N(S(=O)(=O)c2ccc(OC)cc2OC)c2ccc(C#N)cc21` (single isomer, unassigned) [Example 31B, (−)-N-[5-Cyano-1-[(2,4-dimethoxyphenyl)sulphonyl]-3-(2-ethoxypyridin-3-yl)-2-oxo-2,3-dihydro-1H-indol-3-yl]-4-(4-methylpiperazin-1-yl)piperidine-1-carboxamide], the microsomal CLint at 0.5 μM in data set [1] was less than 60 µL/min/mg. The “Ki(h-OT)/Ki(h-V1b)” value in data set [2] is recorded as “+++ (>50)”. Further, in data set [3], the “Ki(h-V1a)/Ki(h-V1b)” value was “+++ (>100)”. In addition, the Ki in data set [4] was less than 10 nM.
Consider `CCOc1ncccc1[C@]1(NC(=O)N2CCC(C3CCN(C)CC3)CC2)C(=O)N(S(=O)(=O)c2ccc(OC)cc2OC)c2ccc(C#N)cc21` (single isomer, unassigned) [Example 61B, (−)-N-[5-Cyano-1-[(2,4-dimethoxyphenyl)sulphonyl)-3-(2-ethoxypyridin-3-yl)-2-oxo-2,3-dihydro-1H-indol-3-yl]-1′-methyl-4,4′-bipiperidine-1-carboxamide trifluoroacetate], for which the microsomal CLint at 0.5 μM in data set [1] is less than 60 µL/min/mg. This molecule came in with a Ki in data set [4] of less than 10 nM.
As to `CCOc1ncccc1C1(NC(=O)N2CCN(C3CCNCC3)CC2)C(=O)N(S(=O)(=O)c2ccc(OC)cc2OC)c2ccc(C#N)cc21.O=C(O)C(F)(F)F.O=C(O)C(F)(F)F` (racemic) [Example 25, N-[5-Cyano-1-[(2,4-dimethoxyphenyl)sulphonyl]-3-(2-ethoxypyridin-3-yl)-2-oxo-2,3-dihydro-1H-indol-3-yl]-4-piperidin-4-ylpiperazine-1-carboxamide bis(trifluoroacetate)], the microsomal CLint at 0.5 μM in data set [1] was less than 60 µL/min/mg. In addition, in data set [2], the “Ki(h-OT)/Ki(h-V1b)” value is reported as “++ (>25-50)”. For the same molecule, in data set [3], the “Ki(h-V1a)/Ki(h-V1b)” value was “+++ (>100)”. The molecule also had a Ki in data set [4] of less than 10 nM.
As for `CCOc1ncccc1[C@]1(NC(=O)N2CCN(C3CCN(C)CC3)CC2)C(=O)N(S(=O)(=O)c2ccc(OC)cc2OC)c2ccc(C#N)cc21` [Example 1B, (−)-N-[5-Cyano-1-[(2,4-dimethoxyphenyl)sulphonyl]-3-(2-ethoxypyridin-3-yl)-2-oxo-2,3-dihydro-1H-indol-3-yl]-4-(1-methylpiperidin-4-yl)piperazine-1-carboxamide], in data set [1], the microsomal CLint at 0.5 μM was less than 60 µL/min/mg. In addition, the “Ki(h-OT)/Ki(h-V1b)” value in data set [2] is listed as “+++ (>50)”. In data set [3], the “Ki(h-V1a)/Ki(h-V1b)” value is “+++ (>100)”. Besides, the inhibition constant Ki in data set [4] is less than 10 nM.
In the same order, the values of `CCOc1ncccc1C1(NC(=O)N2CCN(C3CCN(C)CC3)CC2)C(=O)N(S(=O)(=O)c2ccccc2)c2ccc(C#N)cc21` (racemic) [Example 4, N-[5-Cyano-3-(2-ethoxypyridin-3-yl)-2-oxo-1-(phenylsulphonyl)-2,3-dihydro-1H-indol-3-yl]-4-(1-methylpiperidin-4-yl)piperazine-1-carboxamide] are less than 60 µL/min/mg, “++ (>25-50)”, “++ (>50-100)” and 10 to 50 nM.
Consider `CCOc1ncccc1C1(NC(=O)N2CCC(N3CCN(CC)CC3)CC2)C(=O)N(S(=O)(=O)c2ccccc2)c2ccc(C#N)cc21` (single isomer, unassigned) [Example 40B, (−)-N-[5-Cyano-3-(2-ethoxypyridin-3-yl)-2-oxo-1-(phenylsulphonyl)-2,3-dihydro-1H-indol-3-yl]-4-(4-ethylpiperazin-1-yl)piperidin-1-carboxamide], for which the microsomal CLint at 0.5 μM in data set [1] lay within 60 to 120 µL/min/mg. For the same molecule, the “Ki(h-OT)/Ki(h-V1b)” value in data set [2] is “+++ (>50)”. In addition, the “Ki(h-V1a)/Ki(h-V1b)” value in data set [3] is “+ (15-50)”. Moreover, the Ki in data set [4] is less than 10 nM.
In the same order, the values of `CCOc1ncccc1C1(NC(=O)N2CCC(N3CCN(C)CC3)CC2)C(=O)N(S(=O)(=O)c2ccc(OC)cc2)c2ccc(C#N)cc21.O=C(O)C(F)(F)F` (racemic) [Example 35, N-[5-Cyano-3-(2-ethoxypyridin-3-yl)-1-[(4-methoxyphenyl)sulphonyl]-2-oxo-2,3-dihydro-1H-indol-3-yl]-4-(4-methylpiperazin-1-yl)piperidine-1-carboxamide trifluoroacetate] are 60 to 120 µL/min/mg, “++ (>25-50)”, “+ (15-50)” and less than 10 nM.

The values above are taken from US8859557B2, “Substituted oxindole derivatives and their use as vasopressin receptor ligands” (Abbott GmbH & Co. KG, priority 2006, dated 2014).
